Experimental findings from ChEMBL document CHEMBL1140613, “Antituberculosis drugs: ten years of research” (2007) are described below.

Each structure is given as a SMILES string. Values after ≈ are worked out from the molar mass of the structure shown.

The test relates to Mycobacterium tuberculosis. As to the kind of experiment: Antituberculosis activity against Mycobacterium tuberculosis. Format: functional.

One may read the MIC99 as the lowest concentration that inhibits either 99% of growth or 99% of the strains tested, depending on the study. Read a high MIC99 as lower susceptibility.

For `COc1nc2ccc(Br)cc2cc1[C@@H](c1ccccc1)[C@@](O)(CCN(C)C)c1cccc2ccccc12` [BEDAQUILINE], the MIC99 came out at 0.06 µg/mL (≈ 0.108 µM).
